From USRE48253E1, “Methotrexate adjuvants to reduce toxicity and methods for using the same” (Tosk, Inc., priority 2008, dated 2020)

Experiment: Mouse Study VI: plasma uridine and TK-112690 after TK-112690 treatment
Format: in vivo, CD-1 mouse
Details: 0, 15, 30, 60 and 120 mg/kg ip
Description: In this study, CD-1 female mice were injected ip with 120 mg/kg TK-112690 and plasma from the animals analyzed by HPLC using UV detection for TK-112690 and uridine. Concentrations of uridine and TK-112690 in plasma samples collected 0.08, 0.50, 1, 2, 4 or 12 hours post TK-112690 injection were determined by HPLC using UV detection. […] An increase in plasma uridine was noted almost immediately following administration of TK-112690. At 0.5 hour post TK-112690 dose, a 100 μg/mL plasma concentration TK-112690 is associated with a plasma uridine concentration of approximately 2 μg/mL of uridine (baseline uridine concentration approximately 0.5 μg/mL). […]
Plasma uridine concentration was determined by HPLC using UV detectionafter animals were treated with TK-112690 as follows. […] CD-1 female mice were injected ip with a range of TK-112690 doses (0, 15, 30, 60 and 120 mg/kg) and plasma from the animals analyzed for TK-112690 uridine concentrations expected to be elevated through UPase inhibition by TK-112690. Plasma uridine concentrations were determined from plasma samples collected 0.08, 0.50, 1, 2, 4 or 12 hours post TK-112690 injection. […]
The micromolar concentration of plasma uridine was determined by linear equation (y=mx+b) generated from uridine and 5-FU calibration curve. The y value is calculated by taking ratio of peak heights (mm) of uridine and 5-FU. […]

Cc1cn2c(nc1=O)O[C@H]1[C@H](O)[C@@H](CO)O[C@H]12 [TK-112690, 2,2′-anhydro-5-methyluridine]
plasma concentrations of TK-112690 vs dose: increased with increasing doses
